“Also recorded” adds a separate entry of the source. Like-named read-outs stand apart in the source and are kept apart here.
Tested on: LdtMt2 constructs with single amino acid mutations (Tyr318, His336, His352 and Cys354)
Assay type: binding, M. tuberculosis

C[C@@H](O)[C@H]1C(=O)N2C(C(=O)O)=C([C@H]3CCCO3)S[C@H]12 [faropenem]
ITC binding to mutants: loss of binding
adduct formation with mutants: failed to produce adducts; also recorded: did produce stable adducts

C[C@@H](O)[C@H]1C(=O)N2C(C(=O)[O-])=C(SC3Cn4cnc[n+]4C3)[C@H](C)[C@H]12 (some centres unmarked) [biapenem]
adduct formation with mutants (UPLC-MS, any of the mutant proteins): no adducts could be detected

C[C@@H](O)[C@H]1C(=O)N2C(C(=O)O)=C(SC3CN(C4=NCCS4)C3)[C@H](C)[C@H]12 [tebipenem]
ITC binding to mutants: loss of binding
adduct formation with mutants: failed to produce adducts; also recorded: did produce stable adducts
